# ChEMBL document CHEMBL2331344, “Pharmacological chaperones as therapeutics for lysosomal storage diseases” (J Med Chem, 2013)
# Non-standard residues stand in square brackets, D forms with d. Residues, ends and D or L forms follow the SMILES beside them. *: point of attachment. Palmitoyl = CCCCCCCCCCCCCCCC(=O)*; Dap = NC[C@H](N)C(=O)O
# Experiments:
# Beta-galactosidase = target: T1, Beta-galactosidase (Homo sapiens, UniProt P16278); assay: Inhibition of human beta galactosidase
# T1 sequence (P16278 whole entry): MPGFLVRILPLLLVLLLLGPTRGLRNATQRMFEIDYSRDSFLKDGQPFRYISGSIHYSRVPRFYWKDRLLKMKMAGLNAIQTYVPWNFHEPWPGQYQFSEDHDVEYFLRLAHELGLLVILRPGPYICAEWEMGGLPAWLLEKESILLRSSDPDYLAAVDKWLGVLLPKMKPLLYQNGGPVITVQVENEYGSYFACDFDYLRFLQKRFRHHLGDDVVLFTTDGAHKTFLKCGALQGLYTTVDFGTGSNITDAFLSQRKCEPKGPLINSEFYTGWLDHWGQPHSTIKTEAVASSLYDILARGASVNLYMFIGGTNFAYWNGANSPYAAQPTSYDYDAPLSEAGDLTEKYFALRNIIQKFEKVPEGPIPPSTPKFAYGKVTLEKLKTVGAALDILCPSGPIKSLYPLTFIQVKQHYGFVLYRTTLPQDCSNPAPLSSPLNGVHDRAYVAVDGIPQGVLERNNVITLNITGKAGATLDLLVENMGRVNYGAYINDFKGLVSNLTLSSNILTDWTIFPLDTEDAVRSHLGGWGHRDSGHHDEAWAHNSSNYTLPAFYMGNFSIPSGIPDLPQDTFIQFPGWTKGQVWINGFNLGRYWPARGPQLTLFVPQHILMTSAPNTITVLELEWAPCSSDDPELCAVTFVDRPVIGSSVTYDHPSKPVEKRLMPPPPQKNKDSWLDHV
# [1] = target: T2, Palmitoyl-protein thioesterase 1 (Homo sapiens, UniProt P50897); assay: Inhibition of PPT1 (unknown origin) in cell lysates using fluorescent-based MUGSP as substrate after 1 to 3 hrs
# T2 sequence (P50897 whole entry): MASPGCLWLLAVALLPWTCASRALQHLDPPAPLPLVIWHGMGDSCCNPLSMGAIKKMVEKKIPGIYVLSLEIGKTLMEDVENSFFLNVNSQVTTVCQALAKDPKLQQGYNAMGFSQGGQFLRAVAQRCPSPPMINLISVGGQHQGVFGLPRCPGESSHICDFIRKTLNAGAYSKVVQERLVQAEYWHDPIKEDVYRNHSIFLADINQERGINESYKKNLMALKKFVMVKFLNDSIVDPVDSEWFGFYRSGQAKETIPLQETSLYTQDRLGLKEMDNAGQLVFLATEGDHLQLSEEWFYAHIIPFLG
# Beta-glucosidase = target: T3, Beta-glucosidase (Homo sapiens, UniProt Q9HCG7); assay: Inhibition of beta glucosidase (unknown origin)
# T3 sequence (Q9HCG7 whole entry): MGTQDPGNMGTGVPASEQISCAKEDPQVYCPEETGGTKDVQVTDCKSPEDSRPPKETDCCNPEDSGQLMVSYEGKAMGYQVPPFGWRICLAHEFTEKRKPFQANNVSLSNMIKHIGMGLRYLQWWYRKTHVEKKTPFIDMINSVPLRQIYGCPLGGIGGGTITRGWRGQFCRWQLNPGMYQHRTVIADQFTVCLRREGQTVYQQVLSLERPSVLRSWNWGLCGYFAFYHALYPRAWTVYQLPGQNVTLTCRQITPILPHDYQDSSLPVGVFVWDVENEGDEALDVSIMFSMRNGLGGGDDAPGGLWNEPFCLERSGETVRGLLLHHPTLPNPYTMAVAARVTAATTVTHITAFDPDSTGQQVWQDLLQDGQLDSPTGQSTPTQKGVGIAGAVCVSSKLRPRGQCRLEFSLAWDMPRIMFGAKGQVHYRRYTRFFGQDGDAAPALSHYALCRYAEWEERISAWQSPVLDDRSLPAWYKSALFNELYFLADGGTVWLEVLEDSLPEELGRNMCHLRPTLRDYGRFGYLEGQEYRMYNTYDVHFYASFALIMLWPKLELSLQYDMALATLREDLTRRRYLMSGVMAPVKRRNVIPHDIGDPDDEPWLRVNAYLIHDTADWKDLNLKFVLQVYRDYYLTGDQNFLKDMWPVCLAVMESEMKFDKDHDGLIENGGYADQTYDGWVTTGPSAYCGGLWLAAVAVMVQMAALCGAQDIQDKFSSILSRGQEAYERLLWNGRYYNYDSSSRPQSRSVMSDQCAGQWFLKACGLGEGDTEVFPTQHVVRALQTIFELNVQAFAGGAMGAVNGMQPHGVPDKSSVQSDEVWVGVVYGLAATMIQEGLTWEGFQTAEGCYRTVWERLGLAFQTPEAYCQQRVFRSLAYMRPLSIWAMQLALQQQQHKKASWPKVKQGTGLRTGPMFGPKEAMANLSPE
# [2] = system: T4, Lysosomal acid glucosylceramidase (Homo sapiens), P04062 [N409S]; assay: Induction of beta glucosidase N370S mutant activity in primary skin fibroblast derived from Gaucher disease patient after 5 days relative to control
# T4 sequence (whole entry): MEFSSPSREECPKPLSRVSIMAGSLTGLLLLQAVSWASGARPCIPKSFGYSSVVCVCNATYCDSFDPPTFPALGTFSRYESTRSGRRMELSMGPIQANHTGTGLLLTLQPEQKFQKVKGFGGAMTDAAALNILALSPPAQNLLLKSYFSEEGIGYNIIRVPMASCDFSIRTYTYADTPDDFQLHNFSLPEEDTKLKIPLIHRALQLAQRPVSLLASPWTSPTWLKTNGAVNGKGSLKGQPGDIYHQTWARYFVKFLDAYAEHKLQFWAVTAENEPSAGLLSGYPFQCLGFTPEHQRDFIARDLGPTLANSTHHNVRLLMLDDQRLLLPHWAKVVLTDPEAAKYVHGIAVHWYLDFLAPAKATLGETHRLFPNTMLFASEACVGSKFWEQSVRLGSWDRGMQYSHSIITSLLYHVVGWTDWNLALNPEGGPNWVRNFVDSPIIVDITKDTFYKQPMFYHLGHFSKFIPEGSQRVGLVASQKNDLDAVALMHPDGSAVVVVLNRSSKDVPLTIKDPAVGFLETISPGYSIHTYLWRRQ
# Homo sapiens [3] = species: Homo sapiens; assay: Induction of beta glucosidase G202R mutant activity in primary skin fibroblast derived from patient after 5 days relative to control
# [4] = Non competitive inhibition of beta hexosaminidase (unknown origin); parameters: species or system Homo sapiens
# Homo sapiens [5] = species: Homo sapiens; assay: Induction of beta hexosaminidase activity in patient derived cell-line at 50 uM relative to control
# Homo sapiens [6] = species: Homo sapiens; assay: Induction of beta-hexosaminidase S in fibroblasts derived from ISD patient at 10 uM after 5 days by Western blotting analysis relative to control
# [7] = system: T4, Lysosomal acid glucosylceramidase (Homo sapiens), P04062 [N409S]; assay: Induction of beta glucosidase N370S mutant activity in cells derived from Gaucher disease patient at 20 uM relative to control
# Mus musculus [8] = assay: Induction of human alpha galactosidase A R301Q mutant activity expressed in C57BL/6 transgenic alpha galactosidase A knockout mouse at 30 mg/kg/day, po administered for 2 weeks measured in liver relative to control; type: functional
# Mus musculus [9] = assay: Induction of human alpha galactosidase A R301Q mutant activity expressed in C57BL/6 transgenic alpha galactosidase A knockout mouse at 30 mg/kg/day, po administered for 2 weeks measured in spleen relative to control; type: functional
# Mus musculus [10] = assay: Induction of human alpha galactosidase A R301Q mutant activity expressed in C57BL/6 transgenic alpha galactosidase A knockout mouse at 3 mg/kg/day, po administered for 2 weeks measured in spleen relative to control; type: functional
# Mus musculus [11] = assay: Induction of human alpha galactosidase A R301Q mutant activity expressed in C57BL/6 transgenic alpha galactosidase A knockout mouse at 3 mg/kg/day, po administered for 2 weeks measured in heart relative to control; type: functional
# Mus musculus [12] = assay: Induction of human alpha galactosidase A R301Q mutant activity expressed in C57BL/6 transgenic alpha galactosidase A knockout mouse at 30 mg/kg/day, po administered for 2 weeks measured in heart relative to control; type: functional
# [13] = system: T5, Alpha-galactosidase A (Homo sapiens), P06280 [R301Q]; assay: Induction of alpha galactosidase A R301Q mutant activity in lymphoblasts derived from Fabry disease patient at 100 uM after 4 days relative to control
# T5 sequence (whole entry): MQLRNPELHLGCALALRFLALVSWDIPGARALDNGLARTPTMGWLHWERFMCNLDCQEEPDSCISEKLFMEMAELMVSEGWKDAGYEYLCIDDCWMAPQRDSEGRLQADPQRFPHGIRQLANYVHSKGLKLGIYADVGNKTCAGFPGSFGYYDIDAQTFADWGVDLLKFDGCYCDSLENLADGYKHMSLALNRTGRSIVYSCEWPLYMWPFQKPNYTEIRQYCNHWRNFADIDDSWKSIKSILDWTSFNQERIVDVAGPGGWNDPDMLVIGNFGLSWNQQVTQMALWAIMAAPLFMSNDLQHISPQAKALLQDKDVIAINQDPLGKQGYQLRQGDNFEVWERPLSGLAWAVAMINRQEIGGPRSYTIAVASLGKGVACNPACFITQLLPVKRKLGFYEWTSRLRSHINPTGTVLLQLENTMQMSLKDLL
# Mus musculus [14] = assay: Induction of human alpha galactosidase A R301Q mutant activity expressed in C57BL/6 transgenic alpha galactosidase A knockout mouse at 3 mg/kg/day, po administered for 2 weeks measured in liver relative to control; type: functional
# Mus musculus [15] = assay: Induction of human alpha galactosidase A R301Q mutant activity expressed in C57BL/6 transgenic alpha galactosidase A knockout mouse at 3 mg/kg/day, po administered for 2 weeks measured in kidney relative to control; type: functional
# Mus musculus [16] = assay: Induction of in human alpha galactosidase A R301Q mutant activity expressed in C57BL/6 transgenic alpha galactosidase A knockout mouse at 30 mg/kg/day, po administered for 2 weeks measured in kidney relative to control; type: functional
# Homo sapiens [17] = species: Homo sapiens; assay: Induction of beta-hexosaminidase S activity in fibroblasts derived from ISD patient at 100 uM after 5 days by Western blotting analysis relative to control
# Homo sapiens [18] = species: Homo sapiens; assay: Induction of beta-hexosaminidase S in fibroblasts derived from ISD patient after 5 days by Western blotting analysis relative to control
# [19] = system: T4, Lysosomal acid glucosylceramidase (Homo sapiens), P04062 [N409S]; assay: Induction of beta glucosidase N370S mutant activity in primary skin fibroblast derived from Gaucher disease patient at 20 uM after 5 days relative to control
# Mus musculus [20] = assay: Induction of beta glucosidase L444P mutant in mouse brain administered with drinking water measured after 4 weeks relative to control; type: functional
smiles,measurement,setting,value
CCCCCCCCN[C@@H]1C=C(CO)[C@H](O)[C@H](O)[C@H]1O,Ki,Beta-galactosidase,0.3 µM
CCCCCCCCCCCCCCCC(=O)NC[C@H](NC(=O)CNC(C)=O)C(=O)N[C@H](C(=O)N[C@@H](CCCCN)C(=O)N[C@H](C(=O)N[C@@H](CCCCN)C(=O)N[C@@H](CCCCN)C(=O)O)[C@@H](C)CC)C(C)C (Ac-G[Dap](Palmitoyl)VKIKK-OH),IC50,[1],10 µM
O[C@H]1[C@H](O)[C@@H](O)CN2CC[C@H](O)[C@H]12 [CASTANOSPERMINE],IC50,Beta-glucosidase,19 µM
O=C(CCCCCN1C[C@H](O)[C@@H](O)[C@H](O)[C@H]1CO)NC12CC3CC(CC(C3)C1)C2,fold change (FC),[2],1.4
same,fold change (FC),Homo sapiens [3],2.7
CC(=O)N[C@H]1CN(Cc2ccccc2)[C@@H](CO)[C@@H]1O,Ki,[4],2.8 µM
same,fold change (FC),Homo sapiens [5],2
O=C1c2cccc3cccc(c23)C(=O)N1CCNCCN1C(=O)c2cccc3cccc(c23)C1=O,fold change (FC),Homo sapiens [6],3
"OC[C@@H]1[C@@H](O)C(O)[C@@H](O)CN1CCCn1cc(COc2ccccc2)nn1 (single isomer, unassigned)",fold change (FC),[7],1.9
OC[C@H]1NC[C@H](O)[C@@H](O)[C@H]1O,fold change (FC),Mus musculus [8],7.1
same,fold change (FC),Mus musculus [9],1.8
same,fold change (FC),Mus musculus [10],1.7
same,fold change (FC),Mus musculus [11],4
same,fold change (FC),Mus musculus [12],18
same,fold change (FC),[13],14
same,fold change (FC),Mus musculus [14],3.1
same,fold change (FC),Mus musculus [15],2
same,fold change (FC),Mus musculus [16],28
Cc1[nH]cc2c(=O)n(Cc3ccc(Cl)cc3)ncc12,fold change (FC),Homo sapiens [17],2.5
O=C1c2ccccc2/C(=N/O)C1[N+](=O)[O-] (configuration not stated),fold change (FC),Homo sapiens [18],2
CN(C)c1cccc2c(S(=O)(=O)NCCCCCCN(CCCCCCNS(=O)(=O)c3cccc4c(N(C)C)cccc34)C(=O)CCCCCCN3C[C@H](O)[C@@H](O)[C@H](O)[C@H]3CO)cccc12,fold change (FC),[19],1.6
OC[C@H]1CNC[C@@H](O)[C@@H]1O [AFEGOSTAT],fold change (FC),Mus musculus [20],2
